The EC50 is the concentration at which the effect is half-maximal. What is called ED50 is the dose that gives a 50% effect, or the effect in half of the subjects.

Like-named read-outs stand apart in the source and are kept apart here.

Experiment [1] relates to guinea-pig ileal preparation. Briefly: Decrease of contractile response to intramural electric stimulation in the guinea-pig ileal preparation. The settings on record: Cavia porcellus. How it is done: A 2 cm-long section of the distal ileum freshly dissected from a CO2-asphyxiated guinea pig is cleaned from adhering tissue and mounted in an organ bath (5 mL) containing Krebs solution constantly aerated with oxygen containing 5% CO2. The initial tension is adjusted at 5 g per strip. Tension is monitored isometrically with a Grass FTC3 force transducer. Intramural electric stimulation is delivered through a platinum electrode from a Grass stimulator model s88, s44 at supramaximal voltage (V) and a frequency of 0.1/s. The preparation develops a rhythmic contractile response at maximal amplitude which is stable over time. Addition of test drugs to the organ bath causes a dose-dependent decrease in contraction amplitude which is stable over 5-8 minutes. The relative decrease in contractile response indicates the relative potency of a given agent in a series.
Blocking or decreasing neural excitability evoked by programmed electric stimulation is another indicator of a compound's potential neuroprotective activity. A convenient test system uses the guinea-pig ileal preparation mounted in an organ bath (see, for example, Eiichi Hayashi et al., European J. Pharmacol 48, 297-307, 1978).

In the next experiment the test system is Male ICR mice. Briefly: Protection against maximal electroshock-induced seizure in mice (MES). The experiment is classed as in vivo. The note with it: for protected/total: electroshock 30 min after medication; for ED50: Mus musculus, median effective dose, maximal electroshock, mice, ip, read-out: ED50 (95% confidence limits). The method, then:
Male ICR mice were used. The rodent shocker apparatus consisted of a shock stimulator Type 221 (Hugo Sachs Elektronik, Germany) with a current setting for mice. Thirty minutes after medication with a given agent, given intraperitoneally as a fine slurry in methyl cellulose 0.5% in distilled water, each mouse received an electroshock of 50 mA for 0.2 seconds, applied to the eye, at a maximum of 250 V/300 mA. The ratio of mice protected against seizure in a group of four per dose was determined and used as an indicator of neuroprotective activity.
Protection of mice against seizures induced by electroshock is a widely used model to probe for potential anti-epileptic agents (see, for example, Y. I. Sohn et al., Anticonvulsant properties of diphenylthiohydantoin, Arch. Int. Pharmacodyn. 188, 284-289, 1970).

A further experiment concerns mice. The experiment can be described thus: Protection against hypobaric hypoxia in mice (survival time). Type of experiment: in vivo. The method, then:
The apparatus used consisted of two chambers A and B connected by a three-way valve. […] The air in chamber A was evacuated to a pressure of 100 mm Hg. The three way valve was turned to disconnect chamber B from room air and to connect it to chamber A. At this point, the pressure in B fell to 200 mm Hg. Survival of residing mice was determined up to a maximum exposure of 15 minutes, and is defined as the time between onset of hypoxia to cessation of respiration.

Experiment [2] relates to guinea-pig ileal preparation. Briefly: Potentiation of adenosine depression of contractile response, procedure I (in the presence of test compound). The note with it: drug conc. range 40-400 uM, drug present. How it is done: (§1) The test system used is the intramural electrically-stimulated guinea-pig ileal preparation as described in EXAMPLE 10. Adenosine added to the organ bath in rising concentrations in the range 0.1-10 uM causes a dose-dependent decrease in contraction amplitude, with an EC50 of about 1 uM.
In procedure I, the effect of a given concentration of adenosine, usually, 0.2 or 0.4 uM was first determined and related to the full contractile response in the absence of adenosine. […] The amplitude of the contractile response was recorded. Now, adenosine was added at the same dose initially used, and the effect of adenosine in the presence of the test compound was recorded.
(§2) The calculated effect is the product of the responses to each of the two agents when applied separately. The potentiation ratio is defined as (100%found)/(100-% calculated).

The subject of experiment [3] is guinea-pig ileal preparation. Briefly: Potentiation of adenosine depression of contractile response, procedure II (after exposure to and washout of test compound). The note with it: for Mean potentiation ratio ± SEM: adenosine 0.4 uM, after exposure and washout, drug conc. (uM): 3, 100-400, 5, 50-400, 6, 50-400, 2a, 1000, 2, 1000. The method, then: as §1, §2
In all cases, the difference between the calculated and observed response was statistically significant. […] In procedure II, the dose response to adenosine was determined before and after exposure of the preparation to the test drug and washout of the test drug from the organ bath. In this case, significant potentiation of adenosine was observed even though the test drug had been washed out from the organ bath. In fact, the potentiation ratio, as defined earlier, was even higher than found in the presence of the test compounds (Procedure I), reaching very high values.

Experiment [4] has as its system guinea-pig ileal preparation. Briefly: Decrease in contractile response of guinea-pig ileum evoked by the nicotinic agonist DMPP. The arrangement: Emax: dose or concentration left out as unconfirmed. The method, then: A strip of guinea-pig ileum is mounted in an organ bath, as described in EXAMPLE 10. 1-N,N-dimethyl-4-N-phenylpiperazinium chloride (DMPP) is added at intervals of about 15 minutes in order of increasing dose, to cause bath concentrations in the range of 0.1-10 uM. A brief contraction follows each addition. The amplitude of the contractile response is used to derive a dose-response relationship for DMPP. Usually, a bath concentration of 1 uM DMPP will give 90-100% of the maximal response obtainable in the given preparation. One of two procedures follows this: A dose-response of a test compound is determined in the presence of a fixed concentration of DMPP. This is done by incubating the preparation with a given concentration of the test compound, then challenging it with DMPP at a dose to give 1 uM bath concentration. The procedure is repeated with the next higher concentration of the test compound. In the other procedure, the dose-response of DMPP is determined in the presence of a fixed bath concentration of the test compound, usually 200 uM.
When intramural nerve stimulation occurs, as in the case of electrical stimulation, the contractile effector substance is released from nerve endings by a depolarization wave that propagates along the parasympathetic nerve fiber until its junction with smooth muscle of the ileum. An alternative but not equivalent procedure is stimulation of parasympathetic ganglia by an appropriate nicotinic agonist such as 1-N,N-dimethyl-4-N-phenylpiperazinium chloride (DMPP). Stimulation of parasympathetic ganglia causes a depolarization wave in the post-ganglionic nerve fiber which terminates on the smooth muscle of the ileum, causing release of contractile effector and contraction (see, for example, E. S. Vizi, Acetylcholine release from guinea-pig ileum by parasympathetic ganglion stimulants and gastrin-like polypeptides, Br. J. Pharmacol. 47, 765-77. 1973).

The mark [5] stands for this setting: Mus musculus, ip, read-out: survival ± SD (survival time as percent of vehicle control).
The mark [6] stands for this setting: Mus musculus, 50 mg/kg, ip, mice, 200 mm Hg, read-out: survival ± SD (survival time as percent of vehicle control).
Setting [7] is: Mus musculus, ip, mice, 200 mm Hg, read-out: survival ± SD (survival time as percent of vehicle control).
[8] abbreviates: calculated from logit plot, contractile response to intramural electric stimulation, read-out: EC50.
Setting [9] is: Mus musculus, 25 mg/kg, ip, mice, 200 mm Hg, read-out: survival ± SD (survival time as percent of vehicle control).
[10] abbreviates: dose of 25 mg/kg, listed in decreasing order of activity.

Consider `Nc1ncnc2c1ncn2[C@@H]1O[C@H](CO)[C@@H](O)[C@H]1O` [Adenosine, adenosine, reference compound], for which the half-maximal effective concentration (EC50) in experiment [1] (adenosine added in rising concentrations 0.1-10 uM, electrically-stimulated ileal preparation, read-out: EC50 of decrease in contraction amplitude) was about 1 µM.

Regarding `CCCC(CCC)C(=O)[O-].[Na+]` [Sodium valproate, sodium valproate, reference compound], the protected/total in the experiment on Male ICR mice (280 mg/kg) is reported as 1/8; in the experiment with Male ICR mice (310 mg/kg), 2/8; with Male ICR mice (340 mg/kg), 4/8; in the experiment on Male ICR mice (400 mg/kg) it was 6/8; with Male ICR mice (600 mg/kg), 8/8. For the same compound, in the experiment with Male ICR mice, the ED50 stood at 350 mg/kg.

In the case of `CN1C(=O)CN=C(c2ccccc2)c2cc(Cl)ccc21` [Diazepam, diazepam, reference compound], the response vs control in vivo at 10 mg/kg in the experiment on mice (setting [5]) stood at 316 ± 78%.

For `CCCC(C)C1(CC)C(=O)N=C([O-])NC1=O.[Na+]` (stereo not shown) [Nembutal, reference compound], in the experiment on mice (40 mg/kg, ip, mice, 200 mm Hg), the “survival ± SD (survival time as percent of vehicle control)” value is 253 ± 200% of vehicle control.

Regarding `CC(=O)NC1CCc2cc(Cl)ccc21` (stereo not shown) [Compound 13, reference compound], the response vs control in vivo at 50 mg/kg with mice (setting [6]) turned out to be 148 ± 77%. Moreover, the response vs control in vivo at 100 mg/kg with mice (setting [7]) stood at 267 ± 151%.

Consider `CC(=O)NC1CCc2ccccc21` (stereo not shown) [Compound 2, N-acetyl-1-aminoindan, reference compound], for which the response vs control in vivo at 100 mg/kg in the experiment with mice (setting [7]) came to 200%. Besides, in experiment [2] (adenosine 0.1 uM), the “Mean potentiation ratio ± SEM” value is reported as 1.35 ± 0.07; the “potentiation ratio, Max” value is 1.49; the “potentiation ratio, Min” value was found to be 1.16. Besides, in experiment [2] (adenosine 0.2 uM), the “Mean potentiation ratio ± SEM” value turned out to be 1.24 ± 0.16; the “potentiation ratio, Max” value worked out at 1.51; the “potentiation ratio, Min” value is 0.79. In experiment [3], the “Mean potentiation ratio ± SEM” value is given as 0.87. Moreover, the half-maximal effective concentration (EC50) in experiment [1] (setting [8]) was 1840 µM.

On to `CC(=O)N[C@@H]1CCc2ccccc21` [Compound 2a, (R)-N-acetyl-1-aminoindan, reference compound], for which the half-maximal effective concentration (EC50) was 279 µM in experiment [4] (Cavia porcellus, calculated from logit plot, inhibiting contractile response to 1 uM DMPP, read-out: EC50) and 748 µM in experiment [1] (setting [8]). Also, the “reversibility of the depression by rising concentrations of DMPP” value in experiment [4] (test compound at 200 uM fixed bath concentration, FIG. 8) is reported as “almost to full restoration”. Further, the response vs control in vivo at 25 mg/kg in the experiment with mice (setting [9]) was 142 ± 94%. Also, in the experiment with mice (Mus musculus, 36 mg/kg, ip, mice, 200 mm Hg, read-out: survival ± SD (survival time as percent of vehicle control)), the response vs control in vivo at 36 mg/kg was 110 ± 57%. Further, in the experiment on mice (setting [6]), the response vs control in vivo at 50 mg/kg amounted to 299 ± 69%. The response vs control in vivo at 100 mg/kg with mice (setting [7]) amounted to 375 ± 72%. Also, the “Mean potentiation ratio ± SEM” value in experiment [2] (adenosine 0.2 uM) is 1.31 ± 0.05; in experiment [3] it was 1.41. The “potentiation ratio, Max” value in experiment [2] (adenosine 0.2 uM) is reported as 1.43. For the same compound, the “potentiation ratio, Min” value in experiment [2] (adenosine 0.2 uM) turned out to be 1.19. Besides, the protected/total in the experiment with Male ICR mice (25 mg/kg intraperitoneally) is given as 0/4; with Male ICR mice (50 mg/kg intraperitoneally) it was 3/4; in the experiment with Male ICR mice (100 mg/kg intraperitoneally) it was 4/4. In the experiment with Male ICR mice, the ED50 is 42 mg/kg. Besides, the “rate of restoration of the original response to adenosine after washout” value in experiment [3] (after exposure to and washout of the potentiating agent) is given as “fastest”.

Consider `O=CNC1=CCc2cc(Cl)ccc21` [Compound 7, N-formyl-6-chloro-3-amino-1H-indene], for which the response vs control in vivo at 12.5 mg/kg with mice (Mus musculus, 12.5 mg/kg, ip, mice, 200 mm Hg, read-out: survival ± SD (survival time as percent of vehicle control)) amounted to 357 ± 299%. In the experiment on mice (setting [9]), the response vs control in vivo at 25 mg/kg is 467 ± 239%. For the same compound, the response vs control in vivo at 50 mg/kg with mice (setting [6]) worked out at 893 ± 433%. Also, the “activity in the hypobaric hypoxia model (in words)” value (“activity” for short) in the experiment with mice (setting [10]) is given as “strong activity”.

In the case of `C[N+]1(C)CCN(c2ccccc2)CC1` [DMPP, 1-N,N-dimethyl-4-N-phenylpiperazinium chloride, reference compound], the Emax in experiment [4] (Cavia porcellus, read-out: contractile response as % of the maximal response obtainable) lay in the range of 90 to 100%.

Consider `COC(=O)NC1=CCc2ccccc21` [Compound 8, N-Methoxycarbonyl-3-amino-1H-indene], for which, in the experiment with mice (setting [5]), the response vs control in vivo at 12.5 mg/kg turned out to be 195 ± 90%, the response vs control in vivo at 25 mg/kg amounted to 402 ± 348% and the response vs control in vivo at 50 mg/kg is 547 ± 327%. In addition, the “activity” value in the experiment on mice (setting [10]) is on record as “strong activity”.

Turning to `CC(=O)NC1=CCCc2ccccc21` [Compound 4, N-Acetyl-4-amino-1,2-dihydronaphthalene], the concentration for a half-maximal effect (EC50) in experiment [4] (Cavia porcellus) was 193 µM; in experiment [1] (setting [8]), 752 µM. Further, in the experiment with mice (setting [5]), the response vs control in vivo at 25 mg/kg came to 156 ± 24%. The “activity” value in the experiment on mice (dose not given) is “inactive”. Besides, the protected/total was 0/4 in the experiment with Male ICR mice (75 mg/kg intraperitoneally) and 3/4 in the experiment with Male ICR mice (100 mg/kg intraperitoneally). The 50% effective dose (ED50) with Male ICR mice worked out at 92.3 mg/kg.

The values above are taken from patent US6737547B1, “Compositions containing and methods of using N-acyl-1H-aminoindenes” (Teva Pharmaceutical Industries, Ltd., priority 1998, dated 2004).
